# Tests used:
# [1] = target: T1, Steroid 17-alpha-hydroxylase/17,20 lyase (Homo sapiens, UniProt P05093); experiment: Inhibition of human CYP17 expressed in Escherichia coli at 0.2 uM
# T1 sequence (P05093 whole entry): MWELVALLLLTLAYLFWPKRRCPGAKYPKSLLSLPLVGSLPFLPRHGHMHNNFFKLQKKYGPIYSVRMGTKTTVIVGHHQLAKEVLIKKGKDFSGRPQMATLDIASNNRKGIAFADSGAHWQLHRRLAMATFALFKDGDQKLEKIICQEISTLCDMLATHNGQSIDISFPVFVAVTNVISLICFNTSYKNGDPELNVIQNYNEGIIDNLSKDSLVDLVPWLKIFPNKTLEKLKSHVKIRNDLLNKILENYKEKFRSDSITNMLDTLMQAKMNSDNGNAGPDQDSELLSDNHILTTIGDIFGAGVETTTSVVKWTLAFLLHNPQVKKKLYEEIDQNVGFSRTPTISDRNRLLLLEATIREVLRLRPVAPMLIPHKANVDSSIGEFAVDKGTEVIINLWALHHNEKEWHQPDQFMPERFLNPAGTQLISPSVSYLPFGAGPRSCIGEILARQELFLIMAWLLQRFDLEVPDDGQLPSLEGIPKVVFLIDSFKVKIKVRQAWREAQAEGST
# [2] = target: T1, Steroid 17-alpha-hydroxylase/17,20 lyase; experiment: Inhibition of human CYP17 expressed in Escherichia coli at 2 uM
# CYP1A2 [3] = target: T2, CYP1A2 (Homo sapiens, UniProt P05177); experiment: Inhibition of hepatic CYP1A2 at 1 uM; assay type: ADME
# T2 sequence (P05177 whole entry): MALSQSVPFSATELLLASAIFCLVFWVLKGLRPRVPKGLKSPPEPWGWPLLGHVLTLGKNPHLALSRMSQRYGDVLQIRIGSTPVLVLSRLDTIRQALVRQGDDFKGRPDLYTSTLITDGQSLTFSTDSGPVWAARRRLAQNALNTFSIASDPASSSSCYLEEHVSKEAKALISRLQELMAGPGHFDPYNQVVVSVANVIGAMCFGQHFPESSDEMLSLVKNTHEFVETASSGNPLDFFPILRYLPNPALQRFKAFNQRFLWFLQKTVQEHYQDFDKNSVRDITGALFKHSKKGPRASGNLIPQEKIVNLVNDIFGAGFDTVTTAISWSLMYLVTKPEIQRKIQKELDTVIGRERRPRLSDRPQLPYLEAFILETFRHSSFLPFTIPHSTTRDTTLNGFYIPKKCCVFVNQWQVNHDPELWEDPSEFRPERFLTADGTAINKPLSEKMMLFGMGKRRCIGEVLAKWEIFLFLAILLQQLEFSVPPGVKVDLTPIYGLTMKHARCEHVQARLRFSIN
# CYP1A2 [4] = target: T2, CYP1A2; experiment: Inhibition of hepatic CYP1A2 at 10 uM; assay type: ADME
# CYP2C9 [5] = target: T3, CYP2C9 (Homo sapiens, UniProt P11712); experiment: Inhibition of hepatic CYP2C9 at 1 uM; assay type: ADME
# CYP2C9 [6] = target: T3, CYP2C9; experiment: Inhibition of hepatic CYP2C9 at 10 uM; assay type: ADME
# CYP2C19 [7] = target: T4, CYP2C19 (Homo sapiens, UniProt P33261); experiment: Inhibition of hepatic CYP2C19 at 1 uM; assay type: ADME
# CYP2C19 [8] = target: T4, CYP2C19; experiment: Inhibition of hepatic CYP2C19 at 10 uM; assay type: ADME
# CYP3A4 [9] = target: T5, CYP3A4 (Homo sapiens, UniProt P08684); experiment: Inhibition of hepatic CYP3A4 at 1 uM; assay type: ADME
# CYP3A4 [10] = target: T5, CYP3A4; experiment: Inhibition of hepatic CYP3A4 at 10 uM; assay type: ADME
# CYP3A4 [11] = target: T5, CYP3A4; experiment: Inhibition of hepatic recombinant CYP3A4 at 10 uM; assay type: ADME
# CYP2D6 [12] = target: T6, CYP2D6 (Homo sapiens, UniProt P10635); experiment: Inhibition of CYP2D6 at 10 uM; assay type: ADME
# CYP2D6 [13] = target: T6, CYP2D6; experiment: Inhibition of CYP2D6 at 1 uM; assay type: ADME
# CYP11B1 [14] = target: T7, CYP11B1 (Homo sapiens, UniProt P15538); experiment: Inhibition of human CYP11B1 expressed in V79Zh11B1 cells at 0.2 uM; assay type: cell-based, V79; details: V79Zh11B1 cells expressing human CYP11B1
# T7 sequence (P15538 whole entry): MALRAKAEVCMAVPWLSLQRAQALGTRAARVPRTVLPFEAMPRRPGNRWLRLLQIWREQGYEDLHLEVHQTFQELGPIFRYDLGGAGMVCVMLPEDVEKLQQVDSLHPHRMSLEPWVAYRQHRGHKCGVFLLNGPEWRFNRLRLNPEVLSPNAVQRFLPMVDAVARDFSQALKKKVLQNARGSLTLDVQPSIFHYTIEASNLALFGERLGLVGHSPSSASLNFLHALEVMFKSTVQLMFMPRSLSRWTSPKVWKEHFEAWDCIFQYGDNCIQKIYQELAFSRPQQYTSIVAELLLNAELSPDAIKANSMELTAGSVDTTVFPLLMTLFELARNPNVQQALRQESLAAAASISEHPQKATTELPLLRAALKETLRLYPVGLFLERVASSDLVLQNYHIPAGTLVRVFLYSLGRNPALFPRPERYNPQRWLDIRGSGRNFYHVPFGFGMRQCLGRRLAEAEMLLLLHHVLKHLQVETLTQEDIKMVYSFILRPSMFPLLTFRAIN
# CYP11B1 [15] = target: T7, CYP11B1; experiment: Inhibition of human CYP11B1 expressed in V79Zh11B1 cells at 2 uM; assay type: cell-based; details: V79Zh11B1 cells expressing human CYP11B1
# [16] = target: T1, Steroid 17-alpha-hydroxylase/17,20 lyase; experiment: Inhibition of human CYP17 expressed in Escherichia coli
# T5 sequence (P08684 whole entry): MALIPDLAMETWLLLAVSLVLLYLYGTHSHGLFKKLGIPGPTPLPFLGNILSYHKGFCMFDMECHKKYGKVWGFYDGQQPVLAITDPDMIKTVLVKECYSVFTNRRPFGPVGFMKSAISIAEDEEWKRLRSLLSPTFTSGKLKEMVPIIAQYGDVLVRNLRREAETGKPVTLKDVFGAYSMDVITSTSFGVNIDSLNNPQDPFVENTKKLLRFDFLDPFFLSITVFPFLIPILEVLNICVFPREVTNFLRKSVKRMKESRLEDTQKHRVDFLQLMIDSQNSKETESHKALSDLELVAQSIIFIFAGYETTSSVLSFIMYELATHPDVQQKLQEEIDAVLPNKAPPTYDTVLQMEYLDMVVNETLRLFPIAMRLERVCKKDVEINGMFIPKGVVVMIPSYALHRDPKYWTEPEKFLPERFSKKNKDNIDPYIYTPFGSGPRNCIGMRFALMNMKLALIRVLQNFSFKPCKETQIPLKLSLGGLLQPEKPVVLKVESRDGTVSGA
# T3 sequence (P11712 whole entry): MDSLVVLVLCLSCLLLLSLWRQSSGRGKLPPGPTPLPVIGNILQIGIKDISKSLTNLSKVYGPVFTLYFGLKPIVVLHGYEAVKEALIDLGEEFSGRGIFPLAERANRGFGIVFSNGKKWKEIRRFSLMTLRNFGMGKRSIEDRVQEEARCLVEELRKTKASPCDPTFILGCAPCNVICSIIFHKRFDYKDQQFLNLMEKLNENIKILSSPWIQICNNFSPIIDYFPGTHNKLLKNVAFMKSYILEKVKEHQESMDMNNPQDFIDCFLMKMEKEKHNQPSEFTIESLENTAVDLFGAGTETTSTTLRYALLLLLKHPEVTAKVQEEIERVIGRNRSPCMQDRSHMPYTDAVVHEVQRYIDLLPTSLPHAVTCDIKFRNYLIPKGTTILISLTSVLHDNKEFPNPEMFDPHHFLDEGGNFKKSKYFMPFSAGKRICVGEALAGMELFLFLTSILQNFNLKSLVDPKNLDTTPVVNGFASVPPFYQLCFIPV
# T4 sequence (P33261 whole entry): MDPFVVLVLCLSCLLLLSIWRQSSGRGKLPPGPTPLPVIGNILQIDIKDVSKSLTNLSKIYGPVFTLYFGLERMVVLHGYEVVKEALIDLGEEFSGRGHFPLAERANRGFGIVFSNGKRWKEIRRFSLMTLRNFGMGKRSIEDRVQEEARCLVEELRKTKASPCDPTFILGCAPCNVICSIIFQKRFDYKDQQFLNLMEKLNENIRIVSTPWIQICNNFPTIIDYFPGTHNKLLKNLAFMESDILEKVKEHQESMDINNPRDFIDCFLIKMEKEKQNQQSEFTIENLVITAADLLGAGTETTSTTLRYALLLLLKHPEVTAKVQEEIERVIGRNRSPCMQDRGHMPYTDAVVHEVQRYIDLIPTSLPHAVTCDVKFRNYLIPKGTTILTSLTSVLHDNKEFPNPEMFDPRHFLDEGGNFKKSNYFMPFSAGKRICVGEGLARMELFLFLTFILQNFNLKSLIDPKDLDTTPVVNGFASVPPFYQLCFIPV
# T6 sequence (P10635 whole entry): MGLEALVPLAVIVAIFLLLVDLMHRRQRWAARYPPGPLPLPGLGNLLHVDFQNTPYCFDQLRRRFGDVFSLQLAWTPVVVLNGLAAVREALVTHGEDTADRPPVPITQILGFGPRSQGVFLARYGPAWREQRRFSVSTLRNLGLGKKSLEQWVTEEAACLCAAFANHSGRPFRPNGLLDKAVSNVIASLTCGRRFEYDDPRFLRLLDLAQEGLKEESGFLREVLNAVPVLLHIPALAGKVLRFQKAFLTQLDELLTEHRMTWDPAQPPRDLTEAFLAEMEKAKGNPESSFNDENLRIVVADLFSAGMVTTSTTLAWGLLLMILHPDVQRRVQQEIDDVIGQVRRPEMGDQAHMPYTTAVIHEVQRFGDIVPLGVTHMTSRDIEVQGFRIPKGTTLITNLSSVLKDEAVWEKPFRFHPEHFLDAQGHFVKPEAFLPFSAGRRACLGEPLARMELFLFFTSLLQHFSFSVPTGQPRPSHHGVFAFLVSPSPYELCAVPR
Structure (SMILES),inhibition at 0.2 µM [1] [%],inhibition at 2 µM [2] [%],inhibition at 1 µM (CYP1A2 [3]) [%],inhibition at 10 µM (CYP1A2 [4]) [%],inhibition at 1 µM (CYP2C9 [5]) [%],inhibition at 10 µM (CYP2C9 [6]) [%],inhibition at 1 µM (CYP2C19 [7]) [%],inhibition at 10 µM (CYP2C19 [8]) [%],inhibition at 1 µM (CYP3A4 [9]) [%],inhibition at 10 µM (CYP3A4 [10]) [%],further results
COc1ccc2cc(-c3ccc(F)cc3)ccc2c1Cn1ccnc1,13,45,80,85,100,100,93,96,93,95,–
Fc1ccc(-c2ccc3cc(Cn4ccnc4)ccc3c2)cc1,3,14,–,–,–,–,–,–,–,–,–
COc1ccc2cc(-c3cccnc3)ccc2c1-c1ccc(F)cc1,0,1,–,–,–,–,–,–,–,–,–
Fc1ccc(-c2cc(Cn3ccnc3)c3ccccc3c2)cc1,9,50,–,–,–,–,–,–,–,–,–
COc1ccc2cc(-c3cccc(Cn4ccnc4)c3)ccc2c1,0,28,96,97,97,100,95,97,91,96,–
Fc1ccc(-c2ccc3c(-c4ccncc4)cccc3c2)cc1,1,28,–,–,–,–,–,–,–,–,–
Fc1ccc(-c2ccc3c(Cn4ccnc4)cccc3c2)cc1,2,19,–,–,–,–,–,–,–,–,–
COc1ccc2cc(-c3ccc(F)cc3)ccc2c1-c1cccnc1,6,7,40,87,66,54,68,28,64,86,–
C[C@]12CC[C@H](O)CC1=CC[C@@H]1[C@@H]2CC[C@]2(C)C(c3cccnc3)=CC[C@@H]12 [ABIRATERONE],–,–,36,53,17,51,3,7,7,7,IC50 [16]: 72 nM
CC(=O)N1CCN(c2ccc(OCC3COC(Cn4ccnc4)(c4ccc(Cl)cc4Cl)O3)cc2)CC1 (stereo not drawn) [KETOCONAZOLE],–,–,8,38,21,75,24,1,1,4,–

# Continued, in another order:
inhibition at 0.2 µM [1] [%],inhibition at 2 µM [2] [%],inhibition at 1 µM (CYP1A2 [3]) [%],inhibition at 10 µM (CYP1A2 [4]) [%],inhibition at 1 µM (CYP2C9 [5]) [%],inhibition at 10 µM (CYP2C9 [6]) [%],inhibition at 1 µM (CYP2C19 [7]) [%],inhibition at 10 µM (CYP2C19 [8]) [%],inhibition at 1 µM (CYP3A4 [9]) [%],inhibition at 10 µM (CYP3A4 [10]) [%],Structure (SMILES),further results
2,3,–,–,–,–,–,–,–,–,Fc1ccc(-c2ccc3c(-c4cccnc4)cccc3c2)cc1,–
0,0,–,–,–,–,–,–,–,–,Oc1ccc2cc(-c3ccc(F)cc3)ccc2c1-c1cccnc1,–
0,22,–,–,–,–,–,–,–,–,Fc1ccc(-c2ccc3cc(-c4cccnc4)ccc3c2)cc1,–
3,3,–,–,–,–,–,–,–,–,Cc1cc(F)ccc1-c1ccc2c(-c3cccnc3)cccc2c1,–
4,23,–,–,–,–,–,–,–,–,COc1ccc2cc(-c3cccc(-c4ccncc4)c3)ccc2c1,–
0,8,–,–,–,–,–,–,–,–,Oc1ccc2cc(-c3cccc(-c4cccnc4)c3)ccc2c1,–
31,66,98,98,94,97,86,89,6,19,Oc1ccc2cc(-c3cccc(-c4ccncc4)c3)ccc2c1,inhibition at 10 µM (CYP3A4 [11]): 19%; inhibition at 10 µM (CYP2D6 [12]): 85%; inhibition at 1 µM (CYP2D6 [13]): 80%; inhibition at 0.2 µM (CYP11B1 [14]): 3%; inhibition at 2 µM (CYP11B1 [15]): 23%
24,61,–,–,–,–,–,–,–,–,Oc1ccc2cc(-c3ccc(Cn4ccnc4)cc3)ccc2c1,–
3,4,–,–,–,–,–,–,–,–,COc1ccc2cc(-c3cccc(-c4cccnc4)c3)ccc2c1,–

# Reference: ChEMBL document CHEMBL1140785, “Synthesis, biological evaluation and molecular modelling studies of novel ACD- and ABD-ring steroidomimetics as inhibitors of CYP17” (Bioorg Med Chem Lett, 2008)
